According to patent publication US20160045505A1, “COMPOUNDS AND COMPOSITIONS FOR THE TREATMENT OF PARASITIC DISEASES” (NOVARTIS AG, priority 2013, published 2016):
Read-outs that look alike come from different tables or passages of the source.

What was measured:
[1] = test system: Leishmania donovani axenic amastigote parasites; test: Leishmania donovani axenic amastigote proliferation assay (Cell TiterGlo luminescence, 2 day incubation); assay type: cell-based; details: Leishmania donovani, read-out: L. donovani amastigotes EC50
[2] = test system: Trypanosoma brucei Lister 427 strain, bloodstream form; test: Assay for proliferation of kinetoplastid parasite Trypanosoma brucei (Cell Titer Glo, 48 hours); assay type: cell-based; details: Trypanosoma brucei, T. brucei Lister 427 bloodstream form, read-out: T. brucei EC50
Procedure, shortened: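 Bloodstream-form T. brucei Lister 427 in HMI-9 medium was exposed to compound (DMSO vehicle) for 48 hours at 37° C, 5% CO2. Parasite growth was read as ATP by CellTiter-Glo luminescence, with EC50 calculated from percent inhibition.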

[3] = test system: Trypanosoma cruzi amastigotes (Tulahuen strain expressing Lac-Z) cultured in 3T3 fibroblast cells; test: microbe, parasite or virus in culture; assay type: cell-based; details: Trypanosoma cruzi, TULAHUEN, Fibroblast, T. cruzi amastigotes in 3T3 fibroblast cells, read-out: T cruzi EC50
[4] = test system: L. donovani HU3 strain in mouse peritoneal macrophages; test: Assay for proliferation of Leishmania parasites in infected mouse peritoneal macrophages (SybrGreen staining, high-content imaging, 5 days); assay type: cell-based, Leishmania donovani; details: Leishmania donovani, Peritoneal macrophage, L. donovani in mouse peritoneal macrophages, read-out: L. donovani Macrophage EC50
[5] = axenic amastigotes, inhibition of proliferation

| SMILES | EC50 [1, 5] [nM] | EC50 ([2]; inhibition of proliferation) [nM] | EC50 ([3]; inhibition of proliferation) [nM] | EC50 ([4]; inhibition of proliferation) [nM] | EC50 ([1]; L. donovani axenic amastigotes) [nM] | EC50 [2] [nM] | EC50 [3] [nM] | EC50 [4] [nM] |
| --- | --- | --- | --- | --- | --- | --- | --- | --- |
| O=C(Nc1ccc(F)c(-c2cn3cc(C4=CCOCC4)cnc3n2)c1)N1CCC1 [Compound 322] | 43 | 20 | 76 | 157 | – | – | – | – |
| CN(C)C(=O)Nc1ccc(F)c(-c2cn3cc(-c4ccccc4)cnc3n2)c1 [Compound 323] | 97 | 47 | 46 | 278 | – | – | – | – |
| CN(C)C(=O)Nc1ccc(F)c(-c2cn3cc(C4=CCOCC4)cnc3n2)c1 [Compound 324] | 288 | 47 | 253 | 1570 | – | – | – | – |
| CCN(C)C(=O)Nc1ccc(F)c(-c2cn3cc(-c4ccccc4)cnc3n2)c1 [Compound 327] | 167 | 102 | 50 | 459 | – | – | – | – |
| CCN(C)C(=O)Nc1ccc(F)c(-c2cn3cc(C4=CCOCC4)cnc3n2)c1 [Compound 328] | 387 | 167 | 302 | 1500 | – | – | – | – |
| Cc1ncc(C(=O)Nc2ccc(F)c(-c3cn4cc(-c5ccccc5)cnc4n3)c2)o1 [Compound 329] | 26 | 55 | 7 | 57 | – | – | – | – |
| Cc1ncc(C(=O)Nc2ccc(F)c(-c3cn4cc(C5=CCOCC5)cnc4n3)c2)o1 [Compound 330] | 28 | 36 | 104 | 114 | – | – | – | – |
| CC(C)OC(=O)Nc1ccc(F)c(-c2cn3cc(-c4ccccc4)cnc3n2)c1 [Compound 331] | 396 | 116 | 53 | 360 | – | – | – | – |
| CC(C)OC(=O)Nc1ccc(F)c(-c2cn3cc(C4=CCOCC4)cnc3n2)c1 [Compound 332] | 166 | 124 | 134 | 592 | – | – | – | – |
| Cc1nc(C)c(C(=O)Nc2cccc(-c3cn4cc(C5=CCOCC5)cnc4n3)c2)o1 [Compound 335] | 178 | 114 | 407 | 521 | – | – | – | – |
| Cc1nc(C)c(C(=O)Nc2cccc(-c3cn4cc(-c5ccccc5)cnc4n3)c2)o1 [Compound 336] | 74 | 86 | 45 | 168 | – | – | – | – |
| O=C(Nc1cccc(-c2cn3cc(-c4ccccc4)cnc3n2)c1)N1CC[C@@H](F)C1 [Compound 337] | 72 | 24 | 68 | 195 | – | – | – | – |
| Cc1nc(C)c(C(=O)Nc2ccc(F)c(-c3nc4ncc(-c5ccccc5)cn4c3F)c2)o1 [Compound 338] | 47 | 40 | 18 | 101 | – | – | – | – |
| Nc1cc(-c2cnc3nc(-c4cc(NC(=O)N5CCCC5)ccc4F)cn3c2)ccn1 [Compound 342] | 2140 | 364 | 9360 | 14600 | – | – | – | – |
| CC(C)(C)OC(=O)N1CCC(Oc2ccc(-c3cnc4nc(-c5cc(NC(=O)N6CCCC6)ccc5Cl)cn4c3)cc2)CC1 [Compound 345] | 251 | 527 | 408 | 955 | – | – | – | – |
| Cc1nc(C)c(C(=O)Nc2ccc(F)c(-c3cn4cc(-c5ccc(CCN6CCOCC6)cc5)cnc4n3)c2)o1 [Compound 348] | 341 | 165 | 41 | 1030 | – | – | – | – |
| Cc1nc(C)c(C(=O)Nc2ccc(F)c(-c3cn4cc(-c5ccc(CCO)cc5)cnc4n3)c2)o1 [Compound 349] | 74 | 69 | 180 | 672 | – | – | – | – |
| O=C(Nc1ccc(F)c(-c2cn3cc(C4=CCCC4)cnc3n2)c1)N1CCCC1 [Compound 354] | 26 | 4 | 8 | 103 | – | – | – | – |
| Cn1cnc(-c2cnc3nc(-c4cc(NC(=O)N5CCCC5)ccc4F)cn3c2)c1 [Compound 355] | 97 | 86 | 1140 | 521 | – | – | – | – |
| Cc1ccccc1-c1cnc2nc(-c3cc(NC(=O)N4CCCC4)ccc3F)cn2c1 [Compound 356] | 88 | 18 | 16 | 332 | – | – | – | – |
| Cc1nc(C)c(C(=O)Nc2ccc(F)c(-c3cn4cc(-c5ccc(OCCN6CCOCC6)cc5)cnc4n3)c2)o1 [Compound 359] | 450 | 1500 | 405 | 4860 | – | – | – | – |
| Cc1nc(C)c(C(=O)Nc2ccc(F)c(-c3cn4cc(-c5ccc(CN(C)C)cc5)cnc4n3)c2)o1 [Compound 360] | 3370 | 116 | 252 | 450 | – | – | – | – |

| SMILES | EC50 [1, 5] [nM] | EC50 ([2]; inhibition of proliferation) [nM] | EC50 ([3]; inhibition of proliferation) [nM] | EC50 ([4]; inhibition of proliferation) [nM] | EC50 ([1]; L. donovani axenic amastigotes) [nM] | EC50 [2] [nM] | EC50 [3] [nM] | EC50 [4] [nM] |
| --- | --- | --- | --- | --- | --- | --- | --- | --- |
| Cc1nc(C)c(C(=O)Nc2ccc(F)c(-c3cn4cc(-c5ccc(S(C)(=O)=O)cc5F)cnc4n3)c2)o1 [Compound 362] | 403 | 345 | > 20000 | > 34400 | – | – | – | – |
| Cc1nc(C)c(C(=O)Nc2ccc(F)c(-c3cn4cc(-c5ccn(C)n5)cnc4n3)c2)o1 [Compound 363] | 77 | 58 | 45 | 136 | – | – | – | – |
| Cc1nc(C)c(C(=O)Nc2ccc(F)c(-c3cn4cc(-c5cccn5C(=O)OC(C)(C)C)cnc4n3)c2)o1 [Compound 364] | 279 | 178 | 220 | 155 | – | – | – | – |
| Cc1nc(C)c(C(=O)Nc2ccc(F)c(-c3cn4cc(-c5c(C)noc5C)cnc4n3)c2)o1 [Compound 366] | 849 | 338 | 443 | 339 | – | – | – | – |
| Cc1nc(C)c(C(=O)Nc2ccc(F)c(-c3cn4cc(-c5cccc(N6CCN(C(=O)OC(C)(C)C)CC6)n5)cnc4n3)c2)o1 [Compound 368] | 463 | 498 | 135 | 905 | – | – | – | – |
| Cc1nc(C)c(C(=O)Nc2ccc(F)c(-c3cn4cc(-c5ccn[nH]5)cnc4n3)c2)o1 [Compound 369] | 282 | 154 | 988 | 294 | – | – | – | – |
| Cc1nc(C)c(C(=O)Nc2ccc(F)c(-c3cn4cc(-c5cncn5C)cnc4n3)c2)o1 [Compound 370] | 5470 | 386 | 7370 | 3610 | – | – | – | – |
| Cc1nc(C)c(C(=O)Nc2ccc(F)c(-c3cn4cc(C5=CCCO5)cnc4n3)c2)o1 [Compound 371] | 1650 | 1470 | 465 | 2300 | – | – | – | – |
| Cc1nc(C)c(C(=O)Nc2ccc(F)c(-c3cn4cc(-c5ccccc5N)cnc4n3)c2)o1 [Compound 372] | – | – | – | – | 221 | 80 | 95 | 242 |
| Cc1nc(C)c(C(=O)Nc2ccc(F)c(-c3cn4cc(C5=CCCCO5)cnc4n3)c2)o1 [Compound 373] | – | – | – | – | 115 | 44 | 84 | 134 |
| Cc1nc(C)c(C(=O)Nc2ccc(F)c(-c3cn4cc(-c5cscn5)cnc4n3)c2)o1 [Compound 374] | – | – | – | – | 40 | 425 | 41 | 43 |
| Cc1nc(C)c(C(=O)Nc2ccc(F)c(-c3cn4cc(C5=CCCN(C)C5)cnc4n3)c2)o1 [Compound 375] | – | – | – | – | 4300 | 135 | 303 | 499 |
| Cc1cccc(-c2cnc3nc(-c4cc(NC(=O)c5oc(C)nc5C)ccc4F)cn3c2)n1 [Compound 376] | – | – | – | – | 85 | 158 | 96 | 256 |
| Cc1nc(C)c(C(=O)Nc2ccc(F)c(-c3cn4cc(-c5ccncc5)cnc4n3)c2)o1 [Compound 377] | – | – | – | – | 75 | 42 | 137 | 144 |
| Cc1nc(C)c(C(=O)Nc2ccc(F)c(-c3cn4cc(C5=CCN(Cc6ccccc6)CC5)cnc4n3)c2)o1 [Compound 378] | – | – | – | – | 543 | 38 | 47 | 134 |
| Cc1nc(C)c(C(=O)Nc2ccc(F)c(-c3cn4cc(C5=CC(C)(C)OC(C)(C)C5)cnc4n3)c2)o1 [Compound 379] | – | – | – | – | 528 | 1430 | 683 | 1680 |
| Cc1nc(C)c(C(=O)Nc2ccc(F)c(-c3cn4cc(-c5ccc(NC(C)C)cc5)cnc4n3)c2)o1 [Compound 380] | – | – | – | – | 24500 | 30700 | 14000 | 33900 |
| CCN(C)C(=O)Nc1ccc(F)c(-c2cn3cc(-c4ccccn4)cnc3n2)c1 [Compound 381] | – | – | – | – | 392 | 482 | 445 | 1440 |
| Cc1nc(C)c(C(=O)Nc2ccc(F)c(-c3cn4cc(-c5ccc(N6CCN(C(C)C)CC6)cc5)cnc4n3)c2)o1 [Compound 382] | – | – | – | – | 3880 | 2600 | 1390 | 10700 |
| Cc1nc(C)c(C(=O)Nc2ccc(F)c(-c3cn4cc(-c5ccc(N6CCOCC6)cc5)cnc4n3)c2)o1 [Compound 383] | – | – | – | – | 146 | 331 | 137 | 521 |
| Cc1nc(C)c(C(=O)Nc2ccc(F)c(-c3cn4cc(-c5cnn(C6CCN(C(=O)OC(C)(C)C)CC6)c5)cnc4n3)c2)o1 [Compound 384] | – | – | – | – | 95 | 143 | 115 | 616 |
